Assay [1] deals with T1, Steroid 5-alpha-reductase (Rattus norvegicus, UniProt P24008+P31214).
T1 sequence (P24008 whole entry): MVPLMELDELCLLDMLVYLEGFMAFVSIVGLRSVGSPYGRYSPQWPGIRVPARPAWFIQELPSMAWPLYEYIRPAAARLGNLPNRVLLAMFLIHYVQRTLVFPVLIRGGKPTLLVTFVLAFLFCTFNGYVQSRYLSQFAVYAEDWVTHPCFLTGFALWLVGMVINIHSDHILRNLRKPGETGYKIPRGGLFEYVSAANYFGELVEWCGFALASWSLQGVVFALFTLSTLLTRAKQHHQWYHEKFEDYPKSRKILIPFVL
T1 sequence (P31214 whole entry): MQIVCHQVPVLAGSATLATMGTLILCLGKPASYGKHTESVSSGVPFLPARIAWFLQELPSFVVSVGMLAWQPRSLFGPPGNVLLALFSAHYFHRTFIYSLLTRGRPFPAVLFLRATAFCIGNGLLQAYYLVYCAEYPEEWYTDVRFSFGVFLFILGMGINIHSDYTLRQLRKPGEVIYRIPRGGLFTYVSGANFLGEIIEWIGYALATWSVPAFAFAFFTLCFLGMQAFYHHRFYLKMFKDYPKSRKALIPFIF
Nature of the assay: Compound was tested for the inhibitory activity against Steroid 5-alpha-reductase in rat.

Assay [2] has as its target T2, 3-oxo-5-alpha-steroid 4-dehydrogenase 1 (Rattus norvegicus, UniProt P24008).
T2 sequence (P24008 whole entry): T1 sequence (P24008 whole entry)
As to the kind of experiment: Compound was tested for the inhibitory activity against Steroid 5-alpha-reductase type 1 in rat.

SMILES strings stand for the structures.

Consider `C[C@]12CCC(=O)C=C1CC[C@@H]1[C@@H]2CC[C@]2(C)C(c3cccnc3)=CC[C@@H]12`, for which the IC50 in assay [1] stood at 10000 nM.
On to `CCCCCCCCNC(=O)[C@H]1CCC2C3CCC4NC(=O)CC[C@]4(C)C3CC[C@@]21C` (some centres undefined), for which the IC50 in assay [1] was found to be 0.13 nM.
In turn, `CC(C)(C)NC(=O)[C@H]1CCC2C3CCC4NC(=O)CC[C@]4(C)C3CC[C@@]21C` (some centres undefined) displayed an IC50 in assay [1] of 6.3 nM.
`CC(C)(C)NC(=O)[C@H]1CC[C@H]2[C@@H]3CC[C@H]4NC(=O)C=C[C@]4(C)[C@H]3CC[C@]12C` [FINASTERIDE] registered an IC50 in assay [2] of 4.2 nM.

By IC50 is commonly meant the concentration that inhibits the measured activity by half. Read a low IC50 as greater potency.

Source of the values: ChEMBL document CHEMBL1130754, “Structure activity relationship study of known inhibitors of the enzyme 5 alpha-reductase (5AR)” (Bioorg Med Chem Lett, 1998).
